Laboratory results reported in publication PMC4428687 (FEMS yeast research, 2013).

Experiments:
[1] = target: CaPma1p (Candida albicans, UniProt A0A1D8PJ01); test: ATPase activity; type: biochemical
[2] = target: CaPma1p (Candida albicans, UniProt A0A1D8PJ01, A570P/A595V/D557N/D559E/I574L/N594R/S564G/S601N/V186I/V531I); test: biochemical
[3] = target: CaPma1p (Candida albicans, UniProt A0A1D8PJ01, A570P/A595V/I574L/N594R/S601N); test: biochemical
[4] = target: CaPma1p-ScPma2p chimera expressed in Saccharomyces cerevisiae (C. albicans SC5314 (with residues of S. cerevisiae Pma2p)) (UniProt P28877); test: SEC

Molecule: [O]=[V]([OH])([OH])[OH] [vanadate]
- IC50 [1]: 2 to 9 µM
- IC50 [2]: 2 to 9 µM
- IC50 [3]: 2 to 9 µM

Molecule: CaPma1p-ScPma2p chimera expressed in Saccharomyces cerevisiae (from UniProt P28877 1-895) (enzyme)
- stoichiometry N [4]: > 4
